Assays:
Assay in all cases: relative viability (nuclei count vs DMSO), 5 days (fraction); higher = more cells survive
ABC-1 = test system: ABC-1
Summary of the method: (§1)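 Medians of duplicate plates are given as relative viability. That measure is the nuclei count in treated wells divided by the count in vehicle wells. Counts were taken on 4× images of lung cancer cell lines in 1536-well plates, 5 days after pin-tool dosing the day after seeding with one drug alone or a fixed anchor-drug dose plus five library-drug doses (not always all listed) in √10 steps.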

CAL-12T = test system: CAL-12T
Summary of the method: as §1

COR-L 105 = test system: COR-L 105
Summary of the method: as §1

ChaGo-K-1 = test system: ChaGo-K-1
Summary of the method: as §1

EMC-BAC-2 = test system: EMC-BAC-2
Summary of the method: as §1

EPLC-272H = test system: EPLC-272H
Summary of the method: as §1

HCC-15 = test system: HCC-15
Summary of the method: as §1

HCC-78 = test system: HCC-78
Summary of the method: as §1

HOP-62 = test system: HOP-62
Summary of the method: as §1

LXF-289 = test system: LXF-289
Summary of the method: as §1

NCI-H1666 = test system: NCI-H1666
Summary of the method: as §1

NCI-H1755 = test system: NCI-H1755
Summary of the method: as §1

NCI-H1915 = test system: NCI-H1915
Summary of the method: as §1

NCI-H1975 = test system: NCI-H1975
Summary of the method: as §1

NCI-H2023 = test system: NCI-H2023
Summary of the method: as §1

NCI-H2085 = test system: NCI-H2085
Summary of the method: as §1

NCI-H2126 = test system: NCI-H2126
Summary of the method: as §1

NCI-H3122 = test system: NCI-H3122
Summary of the method: as §1

NCI-H322M = test system: NCI-H322M
Summary of the method: as §1

NCI-H358 = test system: NCI-H358
Summary of the method: as §1

NCI-H441 = test system: NCI-H441
Summary of the method: as §1

UMC-11 = test system: UMC-11
Summary of the method: as §1

COc1nc(C)cnc1NS(=O)(=O)c1cccnc1-c1ccc(-c2nnco2)cc1 [Zibotentan] + COc1cc2c(Oc3ccc(NC(=O)C4(C(=O)Nc5ccc(F)cc5)CC4)cc3F)ccnc2cc1OCCCN1CCOCC1 [Foretinib] (partner 0.25 µM)
relative viability (ABC-1; first compound 0.08 µM): 0.9 | relative viability (ABC-1; first compound 0.253 µM): 0.936 | relative viability (ABC-1; first compound 0.8 µM): 1.06 | relative viability (ABC-1; first compound 2.53 µM): 1.16 | relative viability (CAL-12T; first compound 0.08 µM): 1.21 | relative viability (CAL-12T; first compound 0.253 µM): 0.923 | relative viability (CAL-12T; first compound 0.8 µM): 1.13 | relative viability (CAL-12T; first compound 2.53 µM): 1.12 | relative viability (COR-L 105; first compound 0.08 µM): 1.31 | relative viability (COR-L 105; first compound 0.253 µM): 0.996 | relative viability (COR-L 105; first compound 0.8 µM): 1.1 | relative viability (COR-L 105; first compound 2.53 µM): 1.03 | relative viability (ChaGo-K-1; first compound 0.08 µM): 0.941 | relative viability (ChaGo-K-1; first compound 0.253 µM): 0.926 | relative viability (ChaGo-K-1; first compound 0.8 µM): 0.977 | relative viability (ChaGo-K-1; first compound 2.53 µM): 0.841 | relative viability (EMC-BAC-2; first compound 0.08 µM): 1.07 | relative viability (EMC-BAC-2; first compound 0.8 µM): 1.05 | relative viability (EMC-BAC-2; first compound 2.53 µM): 1.05 | relative viability (EPLC-272H; first compound 0.08 µM): 0.696 | relative viability (EPLC-272H; first compound 0.253 µM): 0.641 | relative viability (EPLC-272H; first compound 0.8 µM): 0.901 | relative viability (EPLC-272H; first compound 2.53 µM): 0.787 | relative viability (HCC-15; first compound 0.08 µM): 1.05 | relative viability (HCC-15; first compound 0.8 µM): 1.03 | relative viability (HCC-15; first compound 2.53 µM): 1.05 | relative viability (HCC-78; first compound 0.08 µM): 0.535 | relative viability (HCC-78; first compound 0.253 µM): 0.484 | relative viability (HCC-78; first compound 0.8 µM): 0.588 | relative viability (HCC-78; first compound 2.53 µM): 0.518 | relative viability (HOP-62; first compound 0.08 µM): 1.06 | relative viability (HOP-62; first compound 0.253 µM): 1.06 | relative viability (HOP-62; first compound 0.8 µM): 1.21 | relative viability (HOP-62; first compound 2.53 µM): 1.07 | relative viability (LXF-289; first compound 0.08 µM): 0.965 | relative viability (LXF-289; first compound 0.253 µM): 0.95 | relative viability (LXF-289; first compound 0.8 µM): 1.05 | relative viability (LXF-289; first compound 2.53 µM): 0.954 | relative viability (NCI-H1666; first compound 0.08 µM): 0.902 | relative viability (NCI-H1666; first compound 0.253 µM): 0.918 | relative viability (NCI-H1666; first compound 0.8 µM): 0.938 | relative viability (NCI-H1666; first compound 2.53 µM): 0.972 | relative viability (NCI-H1755; first compound 0.08 µM): 0.943 | relative viability (NCI-H1755; first compound 0.253 µM): 0.897 | relative viability (NCI-H1755; first compound 0.8 µM): 0.897 | relative viability (NCI-H1755; first compound 2.53 µM): 0.929 | relative viability (NCI-H1915; first compound 0.08 µM): 1.16 | relative viability (NCI-H1915; first compound 0.253 µM): 1.1 | relative viability (NCI-H1915; first compound 0.8 µM): 1.06 | relative viability (NCI-H1915; first compound 2.53 µM): 1.07 | relative viability (NCI-H1975; first compound 0.08 µM): 0.98 | relative viability (NCI-H1975; first compound 0.253 µM): 0.849 | relative viability (NCI-H1975; first compound 0.8 µM): 0.824 | relative viability (NCI-H1975; first compound 2.53 µM): 0.856 | relative viability (NCI-H2023; first compound 0.08 µM): 0.942 | relative viability (NCI-H2023; first compound 0.253 µM): 0.668 | relative viability (NCI-H2023; first compound 0.8 µM): 0.932 | relative viability (NCI-H2023; first compound 2.53 µM): 0.978 | relative viability (NCI-H2085; first compound 0.08 µM): 0.97 | relative viability (NCI-H2085; first compound 0.253 µM): 1.05 | relative viability (NCI-H2085; first compound 0.8 µM): 0.928 | relative viability (NCI-H2085; first compound 2.53 µM): 1.18 | relative viability (NCI-H2126; first compound 0.08 µM): 1.33 | relative viability (NCI-H2126; first compound 0.253 µM): 1.26 | relative viability (NCI-H2126; first compound 0.8 µM): 0.982 | relative viability (NCI-H2126; first compound 2.53 µM): 1.14 | relative viability (NCI-H3122; first compound 0.08 µM): 1.02 | relative viability (NCI-H3122; first compound 0.253 µM): 0.975 | relative viability (NCI-H3122; first compound 0.8 µM): 0.983 | relative viability (NCI-H3122; first compound 2.53 µM): 1.02 | relative viability (NCI-H322M; first compound 0.08 µM): 1.03 | relative viability (NCI-H322M; first compound 0.253 µM): 0.782 | relative viability (NCI-H322M; first compound 0.8 µM): 0.98 | relative viability (NCI-H322M; first compound 2.53 µM): 1.02 | relative viability (NCI-H358; first compound 0.08 µM): 0.809 | relative viability (NCI-H358; first compound 0.253 µM): 0.485 | relative viability (NCI-H358; first compound 0.8 µM): 0.595 | relative viability (NCI-H358; first compound 2.53 µM): 0.57 | relative viability (NCI-H441; first compound 0.08 µM): 1.11 | relative viability (NCI-H441; first compound 0.253 µM): 0.745 | relative viability (NCI-H441; first compound 0.8 µM): 1.03 | relative viability (NCI-H441; first compound 2.53 µM): 1.04 | relative viability (UMC-11; first compound 0.08 µM): 1.05 | relative viability (UMC-11; first compound 0.253 µM): 0.92 | relative viability (UMC-11; first compound 0.8 µM): 0.991 | relative viability (UMC-11; first compound 2.53 µM): 1.04

— the supplement of paper PMC10307832
